How the values were obtained:
Type in all cases: physicochemical
[1] = Dissolution rate in water of epoxy crosslinking agent; details: 25.0 g in 225 g water (25° C.), stirred 15 minutes, left to stand 1 hour
Experimental: 1. Precisely weigh 25.0 g of the epoxy crosslinking agent composition in a beaker, and add thereto 225 g of water (25° C.).
2. Vigorously stir and mix the resultant at room temperature (23° C.±2° C.) for 15 minutes, and leave the resulting mixture to stand for 1 hour.
3. Measure the volume (mL) of an oily matter precipitated on the bottom of the beaker.
The dissolution rate in water (%) was measured for the purpose of checking the solubility of each epoxy crosslinking agent in water. The dissolution rate in water can be measured by the following procedures.
1. Precisely weigh 25.0 g of the subject crosslinking agent composition in a beaker.
2. Add 225 g of 25° C. water, and vigorously stir the resultant at room temperature for 15 minutes using a magnetic stirrer.
3. After leaving the beaker to stand at room temperature for 1 hour, measure the volume (mL) of an oily matter precipitated on the bottom.

[2] = MIBK/water distribution ratio of epoxy crosslinking agent; details: 5.0 g water, 5.0 g MIBK, 0.5 g crosslinking agent, 23±2° C., average of three
Experimental: Method of measuring the MIBK/water distribution ratio: in a test tube, 5.0 g of water, 5.0 g of methyl isobutyl ketone (MIBK) and 0.5 g of the epoxy crosslinking agent are precisely weighed and mixed with stirring at 23° C.±2° C. for 3 minutes, and the resulting mixture is centrifuged at 1.0×103 G for 10 minutes and thereby separated into an aqueous layer and an MIBK layer, after which the MIBK layer is fractionated and weighed to calculate the MIBK/water distribution ratio using the following equation: MIBK/water distribution ratio (%)=(Weight of separated MIBK layer (g)−Weight of MIBK before separation (g))/Weight of added crosslinking agent (g)×100 • this measurement is performed three times, and an average value thereof is defined as the MIBK/water distribution ratio.
First, about 5.0 g of water, about 5.0 g of MIBK and about 0.5 g of the epoxy crosslinking agent are precisely weighed and added to a test tube. The weight of MIBK and that of the epoxy crosslinking agent are defined as M (g) and E (g), respectively.
This mixture is thoroughly mixed with stirring for 3 minutes at a temperature of 23° C.±2° C. and subsequently separated into an aqueous layer and an MIBK layer by 10-minute centrifugation at 1.0×10^3 G. Thereafter, the weight of the MIBK layer is measured and defined as ML (g). MIBK/water distribution ratio (%)=(ML (g)−M (g))/E (g)×100
The methyl isobutyl ketone (MIBK)/water distribution ratio (%) was measured for the purpose of checking the amount of the movement of each epoxy crosslinking agent into an MIBK layer in an environment similar to the environment in a latex liquid.
3. Fractionate the thus separated MIBK layer into a disposable cup using a Pasteur pipette and measure the weight of the MIBK layer.
4. Calculate the MIBK/water distribution ratio using the following equation: MIBK/water distribution ratio (%)=(Weight (g) of separated MIBK layer−Weight (g) of MIBK before separation))/(Weight (g) of added crosslinking agent)×100
5. Perform this measurement three times, and calculate the average value thereof as the MIBK/water distribution ratio.
It is noted here that a vortex mixer (VORTEX-GENIE 2 Mixer, standard model; manufactured by Scientific Industries, Inc.) was used for the stirring in the procedure 2.

[3] = Pot life (working life) of dip molding composition; details: XNBR NL120H(a)
Description: The term “pot life” used herein represents a property of a dip molding composition, and a method of determining the “pot life” will be described below in the section of Examples. Specifically, the “pot life” refers to a period from the preparation of a dip molding composition to the formation of a cured film, in which period the use of the dip molding composition allows the resulting cured film to satisfy specific criteria.
In the present invention, the acceptable level of the pot life of the dip molding composition necessary for mass production is defined as a level at which a film produced using the dip molding composition that has been stored for at least 3 days satisfies a tensile strength of 20 MPa or higher and a fatigue durability of 240 minutes or longer, which are performances required as a glove.
The pot life is determined based on the time from the addition of an epoxy crosslinking agent in the preparation of a dip molding composition to adhesion of the dip molding composition to a glove forming mold. Moreover, the types of XNBRs and epoxy crosslinking agents used in dip molding compositions are shown in the respective Tables below.
The pot life of each dip molding composition was determined by the following procedures. The unit of the pot life is day. The dip molding compositions were prepared using the respective epoxy crosslinking agents and stored, and cured films were produced at one-day intervals. […] The number of days of storage until the last acceptable day was defined as the pot life. In this Experimental Example, experiments were conducted until day 7 as the longest duration of storage.

[4] = 0.5 parts by weight epoxy crosslinking agent, fatigue durability 240 minutes acceptable line, experiments until day 7

Row | Compound | Dissolution rate in water [1] [%] | MIBK/water distribution ratio [2] [%] | further results
1 | polyethylene glycol diglycidyl ether [epoxy crosslinking agent N] | 99 | 4 | –
2 | diglycerol triglycidyl ether [epoxy crosslinking agent G] | 88 | 36 | Pot life [3, 4]: 3 days
3 | polyglycerol polyglycidyl ether [epoxy crosslinking agent L] | – | – | MIBK/water distribution ratio ([2]; listed as L): −10%
4 | C(OCC1CO1)C(COCC1CO1)OCC1CO1 (stereo not drawn) [epoxy crosslinking agent H, glycerol triglycidyl ether] | 99 | 28 | Pot life [3, 4]: 2 days; Pot life ([3]; added amount of epoxy crosslinking agent increased to 1.0 part by weight): 3 days
5 | polyglycerol polyglycidyl ether [epoxy crosslinking agent K] | 100 | – | MIBK/water distribution ratio ([2]; listed as K): 6%
6 | sorbitol polyglycidyl ether [epoxy crosslinking agent J] | – | – | Dissolution rate in water ([1]; listed as J): 94%; MIBK/water distribution ratio ([2]; listed as J): 23%
7 | CC(COCC1CO1)OCC1CO1 (stereo not drawn) [epoxy crosslinking agent M, propylene glycol diglycidyl ether] | 75 | 57 | –
8 | sorbitol polyglycidyl ether [epoxy crosslinking agent I] | – | – | Dissolution rate in water ([1]; listed as I): 78%; MIBK/water distribution ratio ([2]; listed as I): 26%

— patent US12338351B2, “Dip molding emulsion, method of producing glove, and glove” (Midori Anzen Co., Ltd., priority 2018, dated 2025)
